Source: patent US12331044B2, “Inhibitors of histone deacetylase useful for the treatment or prevention of HIV infection” (Merck Sharp & Dohme LLC, priority 2018, dated 2025)
Read-outs that look alike come from different tables or passages of the source.

Assays:
[1] = biological target: human HDAC3/SMRT heterodimer (Homo sapiens (Human), UniProt O15379); assay: biochemical
[2] = biological target: HDAC6 (Homo sapiens (Human), UniProt Q9UBN7); assay: biochemical
Description: The histone deacetylase activities of HDAC1, HDAC2, HDAC3, HDAC6, and HDAC8 were measured in modified FLUOR DE LYS assays in 384-well format. In this assay, HDAC enzymes are initially incubated with an F-acetyl (or -trifluoroacetyl)-L-lysine-containing substrate with a C-terminal amide having aminomethylcoumarin as the amine component. HDACs cleave the F-acetyl group, rendering the resulting product susceptible to AMC cleavage by trypsin. The released AMC is then detected by its fluorescence. […] All steps were performed at room temperature (23° C.). The assay was performed by pre-incubating serial dilutions of test compounds with the target HDAC prior to initiation with substrate. […] Final conditions used for each assay were: 1. […] The reactions were stopped and developed by addition of 30 ul of HDAC developer solution containing a saturating level of HDAC inhibitor as follows: 1. […] For data analysis, background subtracted product (fluorescence) vs. time data for each inhibitor concentration was fitted using a 4-parameter fit.

[3] = test system: KARN cells (Jurkat 2C4); assay: cells; details: Homo sapiens
[4] = biological target: human HDAC2 (Homo sapiens (Human), UniProt Q92769); assay: HDAC2 inhibition assay (modified FLUOR DE LYS, 384-well); assay type: biochemical; details: […] nM enzyme, 40 μM substrate BML-KI104, 3 h pre-incubation; read-out: HDAC2 IC50
[5] = biological target: human HDAC8 (Homo sapiens (Human), UniProt Q9BY41); assay: HDAC8 inhibition assay (modified FLUOR DE LYS, 384-well); assay type: biochemical; details: […] nM enzyme, 200 μM substrate BML-KI178, 3 h pre-incubation; read-out: HDAC8 IC50
[6] = biological target: human HDAC1 (Homo sapiens (Human), UniProt Q13547); assay: biochemical
[7] = read-out: Karn EC50 nM 0.1% NHS, 0.1% normal human serum, luciferase induction, 2 μM SAHA = 100%
[8] = read-out: Karn EC50 nM 5% NHS, 5% normal human serum, luciferase induction, 2 μM SAHA = 100%

Sequence of human HDAC8 (Q9BY41 whole entry): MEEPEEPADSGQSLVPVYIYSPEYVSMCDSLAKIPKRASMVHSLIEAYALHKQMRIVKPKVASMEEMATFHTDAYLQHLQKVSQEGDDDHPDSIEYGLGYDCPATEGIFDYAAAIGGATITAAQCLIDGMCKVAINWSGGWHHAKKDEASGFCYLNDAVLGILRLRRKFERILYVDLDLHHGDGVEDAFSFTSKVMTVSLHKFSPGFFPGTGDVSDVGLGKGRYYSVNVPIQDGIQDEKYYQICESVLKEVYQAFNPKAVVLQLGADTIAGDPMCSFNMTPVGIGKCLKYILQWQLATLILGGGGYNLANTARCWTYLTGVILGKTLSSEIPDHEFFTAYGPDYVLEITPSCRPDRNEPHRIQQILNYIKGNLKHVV
Sequence of human HDAC2 (Q92769 whole entry): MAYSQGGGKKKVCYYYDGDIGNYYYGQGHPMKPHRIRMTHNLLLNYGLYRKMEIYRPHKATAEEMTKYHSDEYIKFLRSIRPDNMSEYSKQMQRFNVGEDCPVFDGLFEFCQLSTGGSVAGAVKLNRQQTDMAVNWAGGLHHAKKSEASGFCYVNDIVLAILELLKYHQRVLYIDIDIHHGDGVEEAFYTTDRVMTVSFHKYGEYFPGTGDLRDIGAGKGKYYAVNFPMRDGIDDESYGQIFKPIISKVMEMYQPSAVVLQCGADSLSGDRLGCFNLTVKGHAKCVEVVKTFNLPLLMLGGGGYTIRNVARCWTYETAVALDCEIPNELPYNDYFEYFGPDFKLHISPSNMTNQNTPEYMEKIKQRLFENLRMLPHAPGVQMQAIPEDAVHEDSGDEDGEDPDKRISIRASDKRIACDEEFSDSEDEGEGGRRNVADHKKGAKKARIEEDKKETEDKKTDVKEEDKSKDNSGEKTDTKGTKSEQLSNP
Sequence of HDAC6 (Q9UBN7 whole entry): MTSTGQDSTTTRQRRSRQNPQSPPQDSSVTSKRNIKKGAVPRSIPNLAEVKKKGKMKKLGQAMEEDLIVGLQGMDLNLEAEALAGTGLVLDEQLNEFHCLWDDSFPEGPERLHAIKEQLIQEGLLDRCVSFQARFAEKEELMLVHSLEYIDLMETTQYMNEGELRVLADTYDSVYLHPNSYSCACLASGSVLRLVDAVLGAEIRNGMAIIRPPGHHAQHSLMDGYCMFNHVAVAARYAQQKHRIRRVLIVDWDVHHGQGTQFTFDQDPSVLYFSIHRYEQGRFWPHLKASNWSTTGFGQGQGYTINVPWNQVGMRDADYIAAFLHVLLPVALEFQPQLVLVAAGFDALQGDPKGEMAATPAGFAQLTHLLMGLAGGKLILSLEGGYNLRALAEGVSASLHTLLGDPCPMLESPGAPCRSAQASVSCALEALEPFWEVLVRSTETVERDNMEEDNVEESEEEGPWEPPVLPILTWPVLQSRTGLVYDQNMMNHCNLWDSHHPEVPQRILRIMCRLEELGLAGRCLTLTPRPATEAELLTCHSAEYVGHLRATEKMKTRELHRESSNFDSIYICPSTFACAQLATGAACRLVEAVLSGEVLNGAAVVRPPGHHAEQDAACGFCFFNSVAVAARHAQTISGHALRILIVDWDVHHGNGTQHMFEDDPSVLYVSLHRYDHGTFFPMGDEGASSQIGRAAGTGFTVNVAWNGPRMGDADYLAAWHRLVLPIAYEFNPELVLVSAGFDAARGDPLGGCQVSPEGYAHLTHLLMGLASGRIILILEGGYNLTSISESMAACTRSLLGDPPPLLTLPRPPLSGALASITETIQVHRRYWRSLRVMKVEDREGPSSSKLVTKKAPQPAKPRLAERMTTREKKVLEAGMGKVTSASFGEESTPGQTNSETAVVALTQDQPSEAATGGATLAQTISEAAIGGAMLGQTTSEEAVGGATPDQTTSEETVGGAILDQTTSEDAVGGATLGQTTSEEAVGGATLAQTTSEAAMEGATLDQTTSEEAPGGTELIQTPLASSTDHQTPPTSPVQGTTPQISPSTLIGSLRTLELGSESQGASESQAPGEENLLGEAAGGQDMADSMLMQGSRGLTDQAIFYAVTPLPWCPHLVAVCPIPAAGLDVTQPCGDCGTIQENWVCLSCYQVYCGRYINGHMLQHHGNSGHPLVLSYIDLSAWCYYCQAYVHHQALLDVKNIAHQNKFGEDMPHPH
Sequence of human HDAC3/SMRT heterodimer (O15379 whole entry): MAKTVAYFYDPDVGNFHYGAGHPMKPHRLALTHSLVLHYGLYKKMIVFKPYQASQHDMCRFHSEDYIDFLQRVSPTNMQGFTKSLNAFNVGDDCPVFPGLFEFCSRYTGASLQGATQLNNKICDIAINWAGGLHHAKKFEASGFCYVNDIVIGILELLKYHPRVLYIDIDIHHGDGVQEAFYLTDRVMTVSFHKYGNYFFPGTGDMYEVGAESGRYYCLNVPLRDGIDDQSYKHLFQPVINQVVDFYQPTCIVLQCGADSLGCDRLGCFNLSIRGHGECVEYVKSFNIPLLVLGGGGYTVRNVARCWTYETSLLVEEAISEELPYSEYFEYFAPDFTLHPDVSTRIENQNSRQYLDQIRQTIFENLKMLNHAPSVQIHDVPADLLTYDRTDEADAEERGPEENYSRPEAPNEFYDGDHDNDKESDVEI
Sequence of human HDAC3/SMRT heterodimer (Q9Y618 1-899 partner): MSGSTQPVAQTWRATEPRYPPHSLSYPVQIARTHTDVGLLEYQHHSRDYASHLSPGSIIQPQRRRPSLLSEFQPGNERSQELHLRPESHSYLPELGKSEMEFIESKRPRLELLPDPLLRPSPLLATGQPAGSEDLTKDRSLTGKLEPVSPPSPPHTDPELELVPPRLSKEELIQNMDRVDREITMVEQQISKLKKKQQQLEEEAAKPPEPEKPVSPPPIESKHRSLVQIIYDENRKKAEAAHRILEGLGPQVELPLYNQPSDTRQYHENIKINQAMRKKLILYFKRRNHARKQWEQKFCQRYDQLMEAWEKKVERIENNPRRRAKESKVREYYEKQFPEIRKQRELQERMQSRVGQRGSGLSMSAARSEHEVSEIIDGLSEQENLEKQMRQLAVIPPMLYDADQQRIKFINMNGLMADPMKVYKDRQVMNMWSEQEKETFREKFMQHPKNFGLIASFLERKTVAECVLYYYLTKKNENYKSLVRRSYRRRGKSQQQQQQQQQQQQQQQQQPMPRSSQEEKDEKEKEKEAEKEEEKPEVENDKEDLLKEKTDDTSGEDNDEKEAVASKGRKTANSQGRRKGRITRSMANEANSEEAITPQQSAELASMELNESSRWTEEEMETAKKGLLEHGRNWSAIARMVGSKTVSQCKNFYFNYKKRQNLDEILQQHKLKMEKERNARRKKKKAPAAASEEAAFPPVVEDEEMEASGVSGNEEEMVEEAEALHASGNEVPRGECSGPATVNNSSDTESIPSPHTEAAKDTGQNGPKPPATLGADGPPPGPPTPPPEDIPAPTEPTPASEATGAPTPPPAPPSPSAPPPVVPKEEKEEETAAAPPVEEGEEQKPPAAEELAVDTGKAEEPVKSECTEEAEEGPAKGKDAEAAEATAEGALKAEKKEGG
Sequence of human HDAC1 (Q13547 whole entry): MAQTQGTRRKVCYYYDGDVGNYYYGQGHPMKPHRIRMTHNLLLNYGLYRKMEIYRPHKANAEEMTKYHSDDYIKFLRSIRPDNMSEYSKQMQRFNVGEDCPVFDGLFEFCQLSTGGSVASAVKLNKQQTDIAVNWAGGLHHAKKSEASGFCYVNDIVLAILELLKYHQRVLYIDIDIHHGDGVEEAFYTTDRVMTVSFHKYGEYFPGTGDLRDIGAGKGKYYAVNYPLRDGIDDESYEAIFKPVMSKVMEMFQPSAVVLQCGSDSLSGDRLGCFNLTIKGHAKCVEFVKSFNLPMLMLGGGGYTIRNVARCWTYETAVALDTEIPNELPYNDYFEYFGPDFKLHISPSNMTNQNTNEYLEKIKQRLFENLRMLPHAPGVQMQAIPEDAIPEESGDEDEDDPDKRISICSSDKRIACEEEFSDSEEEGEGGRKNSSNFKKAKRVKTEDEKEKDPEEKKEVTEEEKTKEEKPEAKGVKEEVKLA

Compound	IC50 [1] [nM]	IC50 [2] [µM]	EC50 [3, 7] [nM]	EC50 [3, 8] [nM]	IC50 [4] [nM]	IC50 [5] [nM]	IC50 [6] [nM]
COc1cc(-c2cnc([C@@H](N)CCCCCC(=O)c3ncco3)[nH]2)c(F)cn1 [Example 129, (S)-7-amino-7-(5-(5-fluoro-2-methoxypyridin-4-yl)-1H-imidazol-2-yl)-1-(oxazol-2-yl)heptan-1-one]	16	≥ 45	1600	2900	100	2300	16
CCN1CCC2(CC1)C[C@@H]2C(=O)N[C@@H](CCCCCC(=O)c1ccon1)c1cc(-c2cc3ccc(C)nc3cc2OC)on1 [Example 145, (S)-6-ethyl-N-((S)-7-(isoxazol-3-yl)-1-(5-(7-methoxy-2-methylquinolin-6-yl)isoxazol-3-yl)-7-oxoheptyl)-6-azaspiro[2.5]octane-1-carboxamide]	4.2	> 0.9	49	66	14	5.1	3.4
N#Cc1nc(-c2ccc(F)cc2)[nH]c1[C@@H](N)CCCCCC(=O)c1ncco1 [Example 185, (S)-5-(1-amino-7-(oxazol-2-yl)-7-oxoheptyl)-2-(4-fluorophenyl)-1H-imidazole-4-carbonitrile]	3.9	≥ 45	250	690	15	6700	2.9
CN(C)CC(=O)N[C@@H](CCCCCC(=O)c1ncco1)c1[nH]c(-c2ccc(F)cc2)nc1C#N [Example 186, (S)-N-(1-(4-cyano-2-(4-fluorophenyl)-1H-imidazol-5-yl)-7-(oxazol-2-yl)-7-oxoheptyl)-2-(dimethylamino)acetamide]	0.39	≥ 45	12	21	1.7	220	0.28
N#Cc1nc(-c2ccc(F)cc2)oc1[C@@H](N)CCCCCC(=O)c1ncco1 [Example 189, (S)-5-(1-amino-7-(oxazol-2-yl)-7-oxoheptyl)-2-(4-fluorophenyl)oxazole-4-carbonitrile]	45	≥ 45	3000	7400	250	25000	26
CN(C)CC(=O)N[C@@H](CCCCCC(=O)c1ncco1)c1oc(-c2ccc(F)cc2)nc1C#N [Example 190]	3.2	≥ 45	240	260	21	3200	4.6
N[C@@H](CCCCCC(=O)c1ccon1)c1nc(Cl)c(-c2ccc(F)cc2)[nH]1 [Example 193, (S)-7-amino-7-(4-chloro-5-(4-fluorophenyl)-1H-imidazol-2-yl)-1-(isoxazol-3-yl)heptan-1-one]	1.8	≥ 45	130	1800	7.4	1600	1.8
CN(C)CC(=O)N[C@@H](CCCCCC(=O)c1ccon1)c1nc(Cl)c(-c2ccc(F)cc2)[nH]1 [Example 194, (S)-N-(1-(4-chloro-5-(4-fluorophenyl)-1H-imidazol-2-yl)-7-(isoxazol-3-yl)-7-oxoheptyl)-2-(dimethylamino)acetamide]	0.1	9.5	3.2	15	0.69	19	0.2
